Common to all, as to type: biochemical
Assay [1] addresses T1, Human full-length diacylglycerol:acylCoA acyltransferase 1 (DGAT-1) (Homo sapiens, UniProt O75907).
T1 construct: Human full-length diacylglycerol:acylCoA acyltransferase 1 (DGAT-1) was expressed in Sf9 insect cells; made in house; host or cells: Sf9 insect cells (baculovirus); crude membrane/microsome fraction
T1 sequence (O75907 1-488): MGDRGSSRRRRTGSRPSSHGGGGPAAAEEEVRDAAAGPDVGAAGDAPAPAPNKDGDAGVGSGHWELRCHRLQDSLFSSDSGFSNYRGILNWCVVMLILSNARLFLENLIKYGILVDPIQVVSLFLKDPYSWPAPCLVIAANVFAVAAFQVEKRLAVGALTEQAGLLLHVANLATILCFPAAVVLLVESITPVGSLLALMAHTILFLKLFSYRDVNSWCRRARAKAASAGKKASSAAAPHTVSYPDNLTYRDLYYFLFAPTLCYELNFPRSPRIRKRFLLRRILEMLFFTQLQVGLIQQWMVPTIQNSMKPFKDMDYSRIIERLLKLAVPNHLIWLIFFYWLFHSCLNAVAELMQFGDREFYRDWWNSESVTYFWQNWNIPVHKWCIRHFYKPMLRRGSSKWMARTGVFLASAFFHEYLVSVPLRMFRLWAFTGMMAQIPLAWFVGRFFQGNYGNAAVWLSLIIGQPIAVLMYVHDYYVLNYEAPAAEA
As to the kind of experiment: DGAT-1 Reduced Microsome Multidose Assay, G7829E Human IC50. The note with it: crude membrane fraction of Sf9 cells expressing human DGAT-1; [14C]decanoylCoA; terminated with 5 μl of 1.4% phosphoric acid instead of HCl; average where tested more than once. On the procedure:
(§1) Human full-length diacylglycerol:acylCoA acyltransferase 1 (DGAT-1) was expressed in Sf9 insect cells which are then lysed and a crude membrane fraction (105,000×g pellet) was prepared. The DGAT-1 gene is a human DGAT-1 gene described in J Biol Chem 273:26765 (1998) and U.S. Pat. No. 6,100,077.
(§2) In vitro inhibition of DGAT-1 was measured using a modification, further described below, of the assay methodology described in U.S. Pat. No. 6,994,956 B2.
(§3) The cells were cultured as follows. Sf9 cells (20 L) were infected with 4 mL of DGAT-1 Baculovirus Infected Insect Cells (BIIC) for 72 hours in a Wave Bioreactor System 20/50P (Wave Biotec/GE Healthcare).
(§4) Crude DGAT-1 microsomes were prepared as follows. Cell pellets were washed once with ice-cold Dulbecco's phosphate-buffered saline. Cells were collected in tabletop centrifuge (Beckman GS-6KR), 15 minutes, 2000×g, 4° C. Twenty (20) mL of ice-cold Microsome Buffer (MB) was added per 5 g of cell pellet. The suspension was passed through a microfluidizer 3 times (18K psi). The lysate was transferred to centrifuge tubes and centrifuged for 20 minutes at 5000×g (Beckman-Coulter, Inc. Allegra® 64R High-Speed Refrigerated Benchtop Centrifuge, F0650 rotor) at 4° C. The supernatant was transferred to ultracentrifuge tubes and centrifuged at 125,000×g for 1 hour in a Beckman Ti-45 rotor, 4° C. The supernatant fluid was discarded. The pellet was resuspended in 70 mL of MB by sonication. The microsome concentration was determined using Bio-Rad Protein DC Protein Assay. The microsomes were filter sterilized with a 0.22 μm filter. The samples were portioned, flash frozen and stored at −80° C.
(§5) The Microsome Buffer, used for microsome preparation, was prepared by conventional means and contained 125 mM sucrose, 3 mM imidazole, 0.2 μg/mL aprotinin, 0.2 μg/mL leupeptin and 5 mM dithiothreitol (Cleland's reagent), DGAT-1 activity was measured in 384-well format in a total assay volume of 25 μl that contained, Hepes buffer (50 mM, pH 7.5), MgCl2 (10 mM), bovine serum albumin (0.6 mg/ml), [^14C]decanoylCoA (20 μM, 58 Ci/mol) and membranes (25 μg/ml) into which 1,2 dioleoyl-sn-glycerol (75 μM) in acetone has already been incorporated. Inhibitors in DMSO were pre-incubated with membranes before initiating the DGAT-1 reaction by the addition of decanoylCoA. […] The DMSO concentration was 2.5%. The inhibitors were present at a range of eight concentrations to generate an apparent IC50 for each compound. The eight inhibitor concentration employed ranged from 10 μM to 3 nM (from high to low concentration). Specifically, the eight concentrations used were 10 μM, 3 μM, 1 μM, 300 nM, 100 nM, 30 nM, 10 nM and 3 nM.
(§6) Reaction mixtures were neutralized by the addition of 15 μl of tris(hydroxy-methyl)aminomethane (1M, pH 8.0) and then mixed by trituration with 37.5 μl of Microscint™-E (Perkin Elmer). Plates contents were allowed to partition for 15 to 30 min before ^14C was measured in a scintillation spectrometer (Wallac Microbeta Trilux 1450-030 liquid scintillation counter 12 detector in the top-count DPM mode). Percent inhibition of test compounds was computed as […].
Four separate assays were performed using 4 different methods of analysis. The method of analysis of Assay 1 was the same as Assay 4 (described above) except microsomes were utilized at 25 μg/mL instead of 5 μg/mL. The method of analysis of Assay 2 was the same as Assay 4 (described above) except eleven (11) concentrations of inhibitor were employed instead of eight (8). The method of analysis of Assay 3 was the same as Assay 2 except the compounds were serially diluted in a different laboratory.
Where this DGAT-1 inhibition assay was performed on a compound more than once, an average is provided for that compound.

In assay [2] the target is T1, Human full-length diacylglycerol:acylCoA acyltransferase 1 (DGAT-1). The assay can be described thus: DGAT-1 Reduced Microsome Multidose Assay, G7329F Human IC50. The following applies: crude membrane fraction of Sf9 cells expressing human DGAT-1; [14C]decanoylCoA; apparent IC50, average where tested more than once. In short, it runs like this:
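Sf9-expressed full-length DGAT-1 microsomes (25 or 5 μg/mL) with incorporated 1,2-dioleoyl-sn-glycerol (75 μM), pH 7.5 Hepes, 20 μM [14C]decanoylCoA, 2.5% DMSO, inhibitor pre-incubated. Eight (3 nM–10 μM) or eleven concentrations; 14C product by scintillation gives apparent IC50, averaged over repeats.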

The target is the same in assay [3]. The assay can be described thus: DGAT-1 Reduced Microsome Multidose Assay, G7329B Human IC50. The note with it: crude membrane fraction of Sf9 cells expressing human DGAT-1; [14C]decanoylCoA; apparent IC50, average where tested more than once. The method, then: as §1, §2, §3
Crude DGAT-1 microsomes were prepared as follows. Cell pellets were washed once with ice-cold Dulbecco's phosphate-buffered saline. Cells were collected in tabletop centrifuge (Beckman GS-6KR), 15 minutes, 2000×g, 4° C. Twenty (20) mL of ice-cold Microsome Buffer (MB) was added per 5 g of cell pellet. The suspension was passed through a microfluidizer 3 times (18K psi). […] The microsome concentration was determined using Bio-Rad Protein DC Protein Assay. […]
The Microsome Buffer, used for microsome preparation, was prepared by conventional means and contained 125 mM sucrose, 3 mM imidazole, 0.2 μg/mL aprotinin, 0.2 μg/mL leupeptin and 5 mM dithiothreitol (Cleland's reagent), DGAT-1 activity was measured in 384-well format in a total assay volume of 25 μl that contained, Hepes buffer (50 mM, pH 7.5), MgCl2 (10 mM), bovine serum albumin (0.6 mg/ml), [^14C]decanoylCoA (20 μM, 58 Ci/mol) and membranes (25 μg/ml) into which 1,2 dioleoyl-sn-glycerol (75 μM) in acetone has already been incorporated. […]
Reaction mixtures were neutralized by the addition of 15 μl of tris(hydroxy-methyl)aminomethane (1M, pH 8.0) and then mixed by trituration with 37.5 μl of Microscint™-E (Perkin Elmer). Plates contents were allowed to partition for 15 to 30 min before ^14C was measured in a scintillation spectrometer (Wallac Microbeta Trilux 1450-030 liquid scintillation counter 12 detector in the top-count DPM mode). […]

Assay [4] has the same target. The assay can be described thus: DGAT-1 Reduced Microsome Multidose Assay, G7329E Human IC50. The note with it: crude membrane fraction of Sf9 cells expressing human DGAT-1; [14C]decanoylCoA; apparent IC50, average where tested more than once. On the procedure:
as §1, §2, §3, §4, §5, §6
Four separate assays were performed using 4 different methods of analysis. The method of analysis of Assay 1 was the same as Assay 4 (described above) except microsomes were utilized at 25 μg/mL instead of 5 μg/mL. […]

For orientation: IC50 means the concentration at which inhibition is half-maximal. For `COc1nc(N)c2c(n1)CCN(c1ccc(C(C)(C)c3ncno3)cc1)C2=O` (single isomer, unassigned) [Example 3L], the results for the IC50 in assay [1] and in assay [2] were 67.3 nM and 68.9 nM, respectively.

On to `Cc1nc(N)c2c(n1)CCN(c1ccc(C3CCC(CCO)CC3)cc1)C2=O` (centres unmarked) [Example 9R, 4-amino-6-{4-[4-(2-hydroxyethyl)cyclohexyl]phenyl}-2-methyl-7,8-dihydropyrido[4,3-d]pyrimidin-5(6H)-one], for which the IC50 in assay [3] came to 1030 nM.

In the case of `COc1nc(N)c2c(n1)CCN(c1ccc([C@H]3CC[C@H](CC#N)CC3)cc1)C2=O` [Example 7C, {trans-4-[4-(4-amino-2-methoxy-5-oxo-7,8-dihydropyrido[4,3-d]pyrimidin-6(5H)-yl)phenyl]cyclohexyl}acetonitrile], the IC50 in assay [4] was determined as 133 nM; in assay [2] it was 32.5 nM.

In the case of `COc1nc(N)c2c(n1)CCN(c1ccc(C(C)(C)C)cc1)C2=O` [Example 6A, 4-amino-6-(4-tert-butylphenyl)-2-methoxy-7,8-dihydropyrido[4,3-d]pyrimidin-5(6H)-one], the IC50 in assay [4] amounted to 49 nM; in assay [2] it was 8.88 nM.

As for `COc1nc(N)c2c(n1)CCN(c1ccc(C(C)C)cc1)C2=O` [Example 6E, 4-amino-6-(4-isopropylphenyl)-2-methoxy-7,8-dihydropyrido[4,3-d]pyrimidin-5(6-H)-one], the figures for the IC50 in assay [4] and in assay [2] were 58.5 nM and 17.1 nM, respectively.

`COc1nc(N)c2c(n1)CCN(c1ccc(C(C)(C)c3nnn(C)n3)cc1)C2=O` [Example 3R, 4-amino-2-methoxy-6-{4-[1-methyl-1-(2-methyl-2H-tetrazol-5-yl)ethyl]phenyl}-7,8-dihydropyrido[4,3-d]pyrimidin-5(6H)-one] had a 50% inhibitory concentration (IC50) in assay [1] of 21.1 nM.

In turn, `COc1nc(N)c2c(n1)CCN(c1ccc(CC(C)(C)O)cc1)C2=O` [Example 1S, 4-amino-6-[4-(2-hydroxy-2-methylpropyl)phenyl]-2-methoxy-7,8-dihydropyrido[4,3-d]pyrimidin-5(6H)-one] yielded an IC50 in assay [1] of 44.3 nM.

Regarding `CCC(O)(CC)c1ccc(N2CCc3nc(OC)nc(N)c3C2=O)cc1` [Example 1W, 4-amino-6-[4-(1-ethyl-1-hydroxypropyl)phenyl]-2-methoxy-7,8-dihydropyrido[4,3-d]pyrimidin-5(6H)-one], inhibition in assay [1] was half-maximal at 34 nM (IC50).

Take `COc1nc(N)c2c(n1)CCN(c1ccc(C(C)(C)c3nnnn3C)cc1)C2=O` [Example 3Q, 4-amino-2-methoxy-6-{4-[1-methyl-1-(1-methyl-1H-tetrazol-5-yl)ethyl]phenyl}-7,8-dihydropyrido[4,3-d]pyrimidin-5(6H)-one]: half-maximal inhibition in assay [1] (IC50) was put at 95.3 nM.

Consider `Cc1nc(N)c2c(n1)CCN(c1ccc(C3CCC(CC#N)CC3)cc1)C2=O` (centres unmarked) [Example 9T, {4-[4-(4-amino-2-methyl-5-oxo-7,8-dihydropyrido[4,3-d]pyrimidin-6(5H)-yl)phenyl]cyclohexyl}acetonitrile], for which, in assay [3], the IC50 came to 1890 nM.

With `COc1nc(N)c2c(n1)CCN(c1ccc(C(=O)OCC(C)(C)C)cc1)C2=O` [Example 2F, 2,2-dimethylpropyl 4-(4-amino-2-methoxy-5-oxo-7,8-dihydropyrido[4,3-d]pyrimidin-6(5H)-yl)benzoate], the IC50 in assay [1] worked out at 55.1 nM; in assay [2], 112 nM.

The compound `COc1nc(N)c2c(n1)CCN(c1ccc(C3(C(N)=O)CCC3)cc1)C2=O` [Example 5A, 1-[4-(4-amino-2-methoxy-5-oxo-7,8-dihydropyrido[4,3-d]pyrimidin-6(5H)-yl)phenyl]cyclobutanecarboxamide] had an IC50 in assay [1] of 78.6 nM.

Compound `COc1nc(N)c2c(n1)CCN(c1ccc(C(C)(C)c3cnco3)cc1)C2=O` [Example 1M, 4-amino-2-methoxy-6-{4-[1-methyl-1-(1,3-oxazol-5-yl)ethyl]phenyl}-7,8-dihydropyrido[4,3-d]pyrimidin-5(6H)-one] came in with an IC50 in assay [1] of 11.3 nM.

For the compound `COc1nc(N)c2c(n1)CCN(c1ccc(I)cc1)C2=O` [Example 9E, 4-amino-6-(4-iodophenyl)-2-methoxy-7,8-dihydropyrido[4,3-d]pyrimidin-5(6H)-one], the IC50 in assay [4] is 124 nM.

Regarding `COc1nc(N)c2c(n1)CCN(c1ccc(C3(C#N)CCC3)cc1)C2=O` [Example 4A, 1-[4-(4-amino-2-methoxy-5-oxo-7,8-dihydropyrido[4,3-d]pyrimidin-6(5H)-yl)phenyl]cyclobutanecarbonitrile], the IC50 in assay [1] worked out at 20.7 nM.

On to `COc1nc(N)c2c(n1)CCN(c1ccc(C(C)(C)c3ncco3)cc1)C2=O` [Example 1L, 4-amino-2-methoxy-6-{4-[1-methyl-1-(1,3-oxazol-2-yl)ethyl]phenyl}-7,8-dihydropyrido[4,3-d]pyrimidin-5(6H)-one], for which the IC50 in assay [1] turned out to be 34.8 nM.

Take `COc1nc(N)c2c(n1)CCN(c1ccc(C(C)(C)c3ncon3)cc1)C2=O` (single isomer, unassigned) [Example 3M, 4-amino-2-methoxy-6-{4-[1-methyl-1-(1,2,4-oxadiazol-3-yl)ethyl]phenyl}-7,8-dihydropyrido[4,3-d]pyrimidin-5(6H)-one]: the IC50 in assay [1] amounted to 55.2 nM; in assay [2], 77.8 nM.

In assay [1], `COc1nc(N)c2c(n1)CCN(c1ccc3c(c1)CC(C)(C)O3)C2=O` [Example 9M, 4-amino-6-(2,2-dimethyl-2,3-dihydro-1-benzofuran-5-yl)-2-methoxy-7,8-dihydropyrido[4,3-d]pyrimidin-5(6H)-one] had an IC50 of 1380 nM.

In assay [1], `COc1nc(N)c2c(n1)CCN(c1ccc(C(C)(C)c3cc[nH]n3)cc1)C2=O` [Example 1N, 4-amino-2-methoxy-6-{4-[1-methyl-1-(1H-pyrazol-3-yl)ethyl]phenyl}-7,8-dihydropyrido[4,3-d]pyrimidin-5(6H)-one] displayed an IC50 of 31.9 nM.

The compound `COc1nc(N)c2c(n1)CCN(c1ccc(C3(O)CCCCC3)cc1)C2=O` [Example 1V, 4-amino-6-[4-(1-hydroxycyclohexyl)phenyl]-2-methoxy-7,8-dihydropyrido[4,3-d]pyrimidin-5(6H)-one] had an IC50 in assay [1] of 113 nM.
